Measurements published in patent US10894837B2, “MMP9 inhibitors and uses thereof in the prevention or treatment of a depigmenting disorder” (UNIVERSITE DE BORDEAUX, priority 2016, dated 2021).

Experiments:
Assay type in all cases: cell-based
[1] = tested on: Reconstructed human epidermis containing melanocytes; assay: TNFα and IFNγ-induced melanocyte detachment in reconstructed human epidermis, immunofluorescence of melan-A and E-cadherin; settings: 24 h, 20 ng/ml TNFα and IFNγ, 10 μM inhibitor (FIG. 5)
Method: Reconstructed human epidermis containing melanocytes were stimulated 24 h with or without 20 ng/ml of TNFα and IFNγ in the presence or absence of 10 μM of MMP9 inhibitor ab142180 or SB-CT. Immunofluorescence microscopy analysis of melan-A (red) and E-cadherin (green) expression, Magnification 400×. White arrows show melanocytes that are detached from the basal layer of the epidermis.
(§1) As discussed above, TNFα and IFNγ induce MMP9 gene expression in melanocyte. Inventors used two commercially available synthetic MMP9 inhibitors, SB3CT (a […]) and a selective MMP9 inhibitor (ab142180), to assess whether such inhibition could inhibit TNFα and IFNγ effects on depigmentation. In vitro reconstructed human epidermis containing melanocytes were stimulated with these two cytokines in the presence or absence of the two different MMP9 inhibitors for 24 h (FIG. 5). The combination of TNFα and IFNγ induced melanocyte detachment and E-cadherin inhibition.
Pigmented epidermis (RHEm) are reconstructed from normal human keratinocytes (NHEK) and from normal human melanocytes (NHEM), previously isolated from preputial samples. […]
Then reading with a fluorescence microscope for the analysis of melanocytes detachment.

[2] = tested on: MMP9 gene expression; assay: Real-time PCR analysis of MMP9 gene expression in reconstructed human pigmented epidermis treated with TNFα and IFNγ; settings: 24 h, 10 ng/ml TNFα and IFNγ, 1 μM and 10 μM inhibitor, real-time PCR (FIG. 13A)
Method: (§2) Reconstructed human pigmented epidermis were treated 24 h with or without 10 ng/ml of TNFα and IFNγ in the presence or absence of 1 μM and 10 μM of MMP9 inhibitors ab142180 or SB-CT. (A) Real-time PCR analysis of MMP9 gene expression. Results are expressed as a fold increase above control culture. GAPDH was used as a housekeeping gene. (B) Measurement of MMP9 levels by ELISA in cell-free supernatants.
as §1
After 10 days of reconstruction (D10), reconstructed human pigmented epidermis (RHEm) are placed in 6 wells plate (NUNC reference 140675) in 2 ml of culture medium without hydrocortisone to which 10 ng/ml of interferon (IFN)-γ (R&D systems) and 10 ng/ml of “tumor necrosis factor (TNF)-α” (R&D systems) are added. A control condition without cytokines addition is performed. […]

[3] = tested on: MMP9; assay: MMP9 levels by ELISA in cell-free supernatants of reconstructed human pigmented epidermis treated with TNFα and IFNγ; settings: 24 h, 10 ng/ml TNFα and IFNγ, 1 μM and 10 μM inhibitor, ELISA in cell-free supernatants (FIG. 13B)
Method: as §2, §1
After 10 days of reconstruction (D10), reconstructed human pigmented epidermis (RHEm) are placed in 6 wells plate (NUNC reference 140675) in 2 ml of culture medium without hydrocortisone to which 10 ng/ml of interferon (IFN)-γ (R&D systems) and 10 ng/ml of “tumor necrosis factor (TNF)-α” (R&D systems) are added. A control condition without cytokines addition is performed. Each experimental condition is performed in duplicate or triplicate.

| Structure (SMILES) | TNFα and IFNγ-induced melanocyte detachment and E-cadherin inhibition [1] | MMP9 expression induced by the combination of IFNγ and TNFα, gene level [2] | MMP9 expression induced by the combination of IFNγ and TNFα, protein level (MMP9 production) [3] | MMP9 expression induced by the combination of IFNγ and TNFα, protein level (MMP9 production) ([3]; listed as SB-CT) |
| --- | --- | --- | --- | --- |
| O=S(=O)(CC1CS1)c1ccc(Oc2ccccc2)cc1 (stereo not shown) [SB3CT, 2-[[(4-phenoxyphenyl)sulfonyl]methyl]-Thiirane] | strongly inhibited | reduced | reduced | reduces |
| CCN(CC)Cc1cc(C)c(N(Cc2ccccc2)S(=O)(=O)c2ccc(OC)cc2)c(C(=O)NO)c1 [ab142180, 2-(N-benzyl-4-methoxyphenylsulfonamido)-5-((diethylamino)methyl)-N-hydroxy-3-methylbenzamide] | strongly inhibited | reduced | reduced | – |
